For series [1], the target named is T1, Tyrosine-protein phosphatase non-receptor type 2 (Homo sapiens, UniProt P17706).
T1 sequence (P17706 whole entry): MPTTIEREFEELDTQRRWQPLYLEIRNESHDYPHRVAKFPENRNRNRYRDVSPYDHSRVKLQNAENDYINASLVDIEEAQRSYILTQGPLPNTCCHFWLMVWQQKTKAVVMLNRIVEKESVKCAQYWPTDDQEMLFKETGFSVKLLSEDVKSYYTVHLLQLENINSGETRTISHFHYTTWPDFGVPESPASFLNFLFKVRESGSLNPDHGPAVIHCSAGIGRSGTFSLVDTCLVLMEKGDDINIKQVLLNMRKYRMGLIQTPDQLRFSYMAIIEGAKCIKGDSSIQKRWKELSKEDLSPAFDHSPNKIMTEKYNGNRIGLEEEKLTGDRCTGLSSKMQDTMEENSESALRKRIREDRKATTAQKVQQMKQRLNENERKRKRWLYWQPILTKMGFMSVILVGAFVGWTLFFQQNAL
Put plainly: Inhibition of TCPTP.

The nature of series [2]: Selectivity ratio of IC50 for TCPTP to IC50 for PTP1B.
The target in series [3] is T2, Tyrosine-protein phosphatase non-receptor type 1 (Homo sapiens, UniProt P18031).
T2 sequence (P18031 whole entry): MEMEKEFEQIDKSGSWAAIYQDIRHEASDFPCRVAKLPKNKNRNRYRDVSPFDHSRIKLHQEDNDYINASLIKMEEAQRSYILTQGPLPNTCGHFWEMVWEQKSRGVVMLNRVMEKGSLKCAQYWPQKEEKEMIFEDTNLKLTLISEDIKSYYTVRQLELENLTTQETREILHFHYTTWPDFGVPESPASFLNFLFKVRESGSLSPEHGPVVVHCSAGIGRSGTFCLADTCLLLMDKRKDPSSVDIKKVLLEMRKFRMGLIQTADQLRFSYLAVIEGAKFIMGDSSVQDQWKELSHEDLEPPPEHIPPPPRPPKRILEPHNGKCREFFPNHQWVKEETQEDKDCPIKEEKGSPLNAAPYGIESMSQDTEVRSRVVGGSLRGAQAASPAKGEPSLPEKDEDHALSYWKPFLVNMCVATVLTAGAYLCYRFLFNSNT
Put plainly: Inhibition of PTP1B.

Series [4] is described as follows: Selectivity ratio of Ki for TCPTP to Ki for PTP1B.
Series [5] is described as follows: Permeability across human Caco-2 cell membrane. Type of series: ADME, cell-based. Particulars: read-out: permeability.
Series [6] has as its target Receptor-type tyrosine-protein phosphatase beta (Homo sapiens, UniProt P23467). Put plainly: Inhibition of human protein-tyrosine phosphatase beta.
Series [7] has as its target T2, Tyrosine-protein phosphatase non-receptor type 1. Put plainly: Inhibition of PTP1B by competitive inhibition assay.
In series [8] the test system is C2C12. Put plainly: Augmentation of insulin-stimulated 2-deoxy-D-glucose uptake in mouse C2C12 cells at 100 uM. It is filed as functional.

Sequence of Receptor-type tyrosine-protein phosphatase beta (P23467 whole entry): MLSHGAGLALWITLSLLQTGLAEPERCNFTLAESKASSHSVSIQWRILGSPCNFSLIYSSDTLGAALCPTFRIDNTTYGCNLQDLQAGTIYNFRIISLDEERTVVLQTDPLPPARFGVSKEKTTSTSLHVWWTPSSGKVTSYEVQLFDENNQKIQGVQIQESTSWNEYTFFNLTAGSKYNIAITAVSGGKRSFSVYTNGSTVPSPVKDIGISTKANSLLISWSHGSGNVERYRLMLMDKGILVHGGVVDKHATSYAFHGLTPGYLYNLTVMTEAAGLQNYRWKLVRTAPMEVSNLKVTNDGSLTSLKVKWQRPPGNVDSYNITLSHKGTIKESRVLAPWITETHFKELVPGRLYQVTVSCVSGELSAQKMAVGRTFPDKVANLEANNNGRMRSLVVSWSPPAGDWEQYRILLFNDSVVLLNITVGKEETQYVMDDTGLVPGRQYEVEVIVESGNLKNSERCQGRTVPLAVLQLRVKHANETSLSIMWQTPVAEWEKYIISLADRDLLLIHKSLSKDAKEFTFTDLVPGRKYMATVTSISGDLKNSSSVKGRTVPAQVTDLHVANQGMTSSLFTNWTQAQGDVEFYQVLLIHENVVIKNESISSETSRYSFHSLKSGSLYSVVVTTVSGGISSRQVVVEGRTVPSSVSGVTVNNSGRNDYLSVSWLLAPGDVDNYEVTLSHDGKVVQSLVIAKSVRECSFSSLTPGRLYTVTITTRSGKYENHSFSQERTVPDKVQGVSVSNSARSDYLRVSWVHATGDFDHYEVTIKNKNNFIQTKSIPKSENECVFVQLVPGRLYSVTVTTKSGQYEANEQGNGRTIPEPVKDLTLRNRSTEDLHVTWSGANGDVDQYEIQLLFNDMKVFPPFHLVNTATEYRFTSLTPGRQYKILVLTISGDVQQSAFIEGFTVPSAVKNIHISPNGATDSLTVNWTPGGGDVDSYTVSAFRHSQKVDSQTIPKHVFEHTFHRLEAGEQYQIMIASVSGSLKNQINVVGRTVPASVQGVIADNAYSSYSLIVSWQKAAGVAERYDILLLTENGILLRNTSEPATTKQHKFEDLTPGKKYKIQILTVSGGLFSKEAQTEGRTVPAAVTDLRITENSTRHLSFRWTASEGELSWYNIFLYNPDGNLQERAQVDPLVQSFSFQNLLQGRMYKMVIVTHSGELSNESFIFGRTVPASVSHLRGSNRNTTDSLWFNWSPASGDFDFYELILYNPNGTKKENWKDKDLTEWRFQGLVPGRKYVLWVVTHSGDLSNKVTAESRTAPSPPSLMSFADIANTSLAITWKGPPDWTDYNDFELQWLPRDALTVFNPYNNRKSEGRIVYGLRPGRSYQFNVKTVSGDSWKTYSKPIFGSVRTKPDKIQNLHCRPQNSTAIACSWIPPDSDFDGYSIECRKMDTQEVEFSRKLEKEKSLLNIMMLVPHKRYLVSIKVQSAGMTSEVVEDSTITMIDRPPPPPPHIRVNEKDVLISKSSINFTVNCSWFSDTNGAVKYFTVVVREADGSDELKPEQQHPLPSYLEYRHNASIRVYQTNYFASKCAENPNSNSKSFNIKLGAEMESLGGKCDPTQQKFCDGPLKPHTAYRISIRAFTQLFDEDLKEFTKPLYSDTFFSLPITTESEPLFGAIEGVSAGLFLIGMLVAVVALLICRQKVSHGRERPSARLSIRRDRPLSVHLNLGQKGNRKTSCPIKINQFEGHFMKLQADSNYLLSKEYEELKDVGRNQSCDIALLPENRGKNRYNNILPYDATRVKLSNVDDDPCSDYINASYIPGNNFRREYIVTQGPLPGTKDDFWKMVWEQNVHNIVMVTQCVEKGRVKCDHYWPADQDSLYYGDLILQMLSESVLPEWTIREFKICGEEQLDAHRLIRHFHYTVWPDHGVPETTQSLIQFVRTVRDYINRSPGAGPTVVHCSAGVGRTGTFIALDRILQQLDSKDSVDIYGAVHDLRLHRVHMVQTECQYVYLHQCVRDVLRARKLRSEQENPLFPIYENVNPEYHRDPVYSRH

`N#Cc1ccc2cc(Br)c(C(F)(F)P(=O)(O)O)cc2c1`: the midpoint of inhibition in series [1], the IC50, lay at 120 nM.
`CN(C)S(=O)(=O)c1ccc(CN(Cc2ccc(C(F)(F)P(=O)(O)O)c(Br)c2)S(=O)(=O)c2ccc(OCC(=O)O)cc2)cc1` had a half-maximal inhibitory concentration (IC50) in series [1] of 28 nM. The Ratio IC50 in series [2] came out at 1.
Take `Cc1ccccc1S(=O)(=O)N(Cc1ccc(C(=O)C(F)(F)P(=O)(O)O)cc1)Cc1ccc(C(=O)C(F)(F)P(=O)(O)O)cc1`: in series [3], the IC50 is 600 nM.
`COC(=O)c1c(O)cccc1OCCCCNC(=O)[C@H](Cc1ccc(OCC(=O)O)c(O)c1)NC(C)=O`: the Ratio Ki in series [4] stood at 20. In addition, the Papp in series [5] was greater than 10 ×10⁻⁶ cm/s.
Take `O=C1CN(c2c(O)cc(CC3CCCCC3)cc2F)S(=O)(=O)C1`: the IC50 in series [3] came to 14 nM.
As to `CCc1cc(C[C@H](NC(C)=O)C(=O)NCCCCOc2cccc(O)c2C(=O)OC)ccc1N(C(=O)C(=O)O)c1ccccc1C(=O)O`, the Ki in series [1] amounted to 65 nM.
Turning to `CCc1csc([C@H](Cc2ccc(NS(=O)(=O)O)cc2)NC(=O)[C@H](CC(C)C)C(=O)OC)n1`, the 50% inhibitory concentration (IC50) in series [3] worked out at 70 nM; in series [6], 0.3 nM.
On to `COc1cc(/C=C2\SC(=S)N(c3cccc(Cl)c3)C2=O)cc([N+](=O)[O-])c1O`, for which, in series [2], the Ratio IC50 worked out at 1.3. In series [7], this compound had a Ki of 1800 nM.
Compound `Cc1sc(-c2cccc(NC3CCN(S(=O)(=O)Cc4ccccc4)CC3)c2)cc1C1CC(=O)NS1(=O)=O` (centres undefined) came in with a Ki in series [3] of 4300 nM.
`CS(=O)(=O)OC1C(Cl)CCCC1Cc1ccc(N2CC(=O)CS2(=O)=O)c(O)c1` (centres undefined) had an IC50 in series [3] of 12.6 nM.
As for `O=C(O)C(=O)Nc1sc2c(c1C(=O)O)CCN[C@H]2CNC(=O)c1cc2cc(F)ccc2[nH]1`, the Papp in series [5] was less than 1 ×10⁻⁶ cm/s. Further, in series [8], the Activity is listed as 70%.
On to `Cc1cc(C[C@H](NS(=O)(=O)c2ccccc2)c2nc3ccccc3[nH]2)ccc1N1CC(=O)NS1(=O)=O`, for which, in series [1], the IC50 came out at 150 nM.
Turning to `CCC(CC)c1ccc(N(Cc2cccc(-c3ccc(COc4ccc(C[C@H](NC(C)=O)C(=O)O)cc4)cc3)c2)C(C)C)cc1`, in series [3], half-maximal inhibition (IC50) required 16 nM.
As to `Cc1nc(-c2ccc(Cl)cc2)sc1CCc1cccc(C(O)(C(=O)O)C(F)(F)F)c1` (centres undefined), the IC50 in series [3] was found to be 3200 nM.
In turn, `COC(=O)c1c(O)cccc1OC/C=C/c1cccc(-c2onc(C(=O)O)c2N)c1` registered a half-inhibitory concentration (IC50) in series [1] greater than 30000 nM.
Take `CNC(=O)[C@@H]1Cc2ccc(NS(=O)(=O)O)cc2CN1C(=O)CCc1cccc(NS(=O)(=O)O)c1`: the Ratio IC50 in series [2] was 1.9.
Consider `O=S(=O)(O)C(F)(F)c1cccc(-c2ccc(-c3ccccc3)cc2)c1`, for which the concentration for half-maximal inhibition (IC50) in series [3] worked out at 8000 nM.
In series [1], `NC(=O)[C@H](Cc1ccc(C(F)(F)P(=O)(O)O)cc1)NC(=O)[C@H](CC(=O)O)NC(=O)Cc1ccc(C(F)(F)P(=O)(O)O)cc1` came in with an inhibitory constant (Ki) of 26 nM.
As for `COC(=O)c1c(O)cccc1OCCCCNC(=O)[C@H](Cc1ccc(OC(C(=O)O)C(=O)NC2CC2)cc1)NC(=O)OC(C)(C)C` (some centres undefined), the inhibition constant Ki is 8400 nM in series [3] and greater than 200000 nM in series [1]. In series [4], the Ratio Ki was greater than 23.
On to `Cc1cc(CC(NS(=O)(=O)c2cccc(F)c2)C2=N[C@H](CCOc3ccccc3S(C)(=O)=O)CN2)ccc1C1CC(=O)NS1(=O)=O` (some centres undefined), for which the half-inhibitory concentration (IC50) is 23 nM in series [3] and 25 nM in series [1]. For the same compound, the Ratio IC50 in series [2] was determined as 1.
Take `Cc1cc(C[C@H](NS(=O)(=O)c2ccccc2)c2nc3ccccc3[nH]2)ccc1[C@@H]1CC(=O)NS1(=O)=O`: in series [1], it took 25 nM to reach half-maximal inhibition (IC50).
In turn, `O=S(=O)(Nc1ccc(Oc2ccc(Oc3ccc(NS(=O)(=O)C(F)(F)F)cc3)cc2)cc1)C(F)(F)F` yielded an IC50 in series [3] of 2500 nM.
`COc1ccc2cc(O)c(N3CC(=O)NS3(=O)=O)cc2c1` came in with an IC50 in series [3] of less than 30 nM.
Still for that read-out and setting: the same measure for `CN(CCCCCl)P(=O)(OCc1ccc([N+](=O)[O-])o1)C(F)(F)c1ccc(CC(=O)N[C@@H](CC(=O)O)C(=O)N[C@@H](Cc2ccc(C(F)(F)P(=O)(OCc3ccc([N+](=O)[O-])o3)N(C)CCCCCl)cc2)C(=O)ON)cc1` (some centres undefined): greater than 20000 nM.
`O=C1C[C@@H](c2ccc(C[C@H](Nc3nc4ccccc4s3)c3nc4ccccc4[nH]3)cc2F)S(=O)(=O)N1` gave an IC50 in series [1] of 250 nM.

The IC50 is the concentration at which inhibition is half-maximal. A high value points to lower potency. As a reminder, the Ki is the dissociation constant of the complex between target and ligand, obtained from inhibition or displacement. High values mean weaker binding, low ones tighter binding.

These data come from ChEMBL document CHEMBL1157711, “Recent advances in the discovery of competitive protein tyrosine phosphatase 1B inhibitors for the treatment of diabetes, obesity, and cancer” (J Med Chem, 2010).
